Values quoted from earlier work, collected in EP3409275B1, “COMPOSITION FOR PREVENTION AND/OR TREATMENT OF DISEASES ASSOCIATED TO HYPERALGESIA” (Neilos S.r.l., priority 2017, dated 2018).
One block for each compound: values may come before it.

Experiments:
[1] = 2 g of curcumin with 20 mg of piperine, healthy volunteers
GPR55 orphan receptor = GPR55 orphan receptor (Homo sapiens, UniProt Q9Y2T6); details: activation of GPR55
[2] = mice, curcumin 40 mg/kg, phenylbutazone at similar doses

Sequence of GPR55 orphan receptor (Q9Y2T6 whole entry): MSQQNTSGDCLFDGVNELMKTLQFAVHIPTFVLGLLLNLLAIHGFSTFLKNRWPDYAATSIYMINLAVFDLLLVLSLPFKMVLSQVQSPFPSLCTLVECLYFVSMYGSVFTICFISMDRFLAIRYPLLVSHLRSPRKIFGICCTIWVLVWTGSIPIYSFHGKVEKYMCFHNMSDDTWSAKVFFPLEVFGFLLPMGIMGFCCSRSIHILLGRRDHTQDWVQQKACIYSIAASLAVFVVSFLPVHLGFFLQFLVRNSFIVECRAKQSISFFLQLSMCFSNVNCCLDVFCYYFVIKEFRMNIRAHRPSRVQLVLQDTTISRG

increase in oral bioavailability of curcumin [1]: 20 times
SMILES: O=C(/C=C/C=C/c1ccc2c(c1)OCO2)N1CCCCC1 [piperine]

EC50 (GPR55 orphan receptor): 4 nM
removal half-life (in vivo): about 12 minutes
area under the curve of PEA plasmatic level (AUC1-8h) (oral administration): 6525 ± 1372 ng PEA min ml-1
tmax (oral administration): 15 min
maximum plasmatic concentration (Cmax) (oral administration, Wistar rats): 420 ± 132 nm
SMILES: CCCCCCCCCCCCCCCC(=O)NCCO [PEA, N-(2-hydroxyethyl) hexadecanamide]

SMILES: CCCCC1C(=O)N(c2ccccc2)N(c2ccccc2)C1=O [phenylbutazone]
ulcerogenic index [2]: 1.70
